According to patent US6096734A, “Photosensitizers for sensitizing cells” (The Secretary of State for Defence in Her Britannic …, priority 1993, dated 2000):
Like-named read-outs stand apart in the source and are kept apart here.

Experiments:
[1] = ethanolic solution; Valduga et al 1988; cited from earlier work
[2] = Singlet oxygen generation (luminescence at 1270 nm); assay type: physicochemical
Method: (§1) Triplet state studies were carried out using laser flash photolysis. Samples were prepared in a 1% pyridine in toluene solution; by preparing such a solution then it is believed that aggregation of the phthalocyanine cores is avoided. The solution was prepared so that an optical density of 0.2-0.3 at the excitation wavelength was obtained. Samples were irradiated by an excimer pumped dye laser at 355 nm and the transients monitored with the use of a quartz halogen lamp. Triplet quantum yields were calculated using ZnTPP and ZnPc as standards. The triplet quantum yield is the quantum yield of conversion from the excited singlet state to the triplet state.
The generation of singlet oxygen by the phthalocyanines was also studied. The method of detection of the singlet oxygen involved measuring the intensity of luminescence at 1270 nm, corresponding to the forbidden transition from the excited singlet back down to the ground state, with a liquid nitrogen cooled germanium detector. Aerated samples were irradiated with the same system as described for the triplet state studies. Standards used were ZnTPP, ZnPc and anthracene.
The data in Table 3 are means of no less than four independent runs, except for compounds 8 and 9 were run once.
The properties of the decomposition products arising from irradiation of the phthalocyanines were investigated.

[3] = Triplet state studies by laser flash photolysis; assay type: physicochemical; settings: 1% pyridine in toluene, excitation 355 nm; for Triplet Quantum Yield: means of no less than four runs, compounds 8 and 9 run once
Method: as §1
Compound example 10 is unsubstituted zinc phthalocyanine (ZnPc); this is included in the Table for means of comparison.
The data in Table 2 are means of no less than four independent runs, except for compounds 8 and 9 which were run once.

[4] = design: species or system female Balb/c mice; settings: mouse, in vivo
Method: In this investigation female Balb/c mice 20-22 g bearing a MS-2 fibrosarcoma intramuscularly implanted into the hind right leg were used as an animal model. On the 7th day after transplantation when the tumour diameter was 0.6-0.8 cm and no spontaneous necrosis could be detected, the mice were injected with 1.2 or 2.4 mg/kg ZnODPc incorporated into Cremophor emulsions. The preparation and characterisation of such emulsions has been described by L. Polo et al Cancer Lett. 66: 217-223, 1992. The amount of injected ZnODPc was estimated by diluting a known aliquot of the phthalocyanine-containing emulsion into THF and reading the absorbance at 701 nm (molar absorption coefficient 2.01×10^5 dm^3 mol^-1 cm^-1). The tumour-bearing mice were injected with 1.2 mg/kg ZnODPc in the tail vein. At 3 hours and 24 hours after administration, groups of three mice were sacrificed by prolonged exposure to ether vapours, the tumour and selected normal tissues (muscle, skin, liver and kidneys) were excised, washed with phosphate buffered saline (PBS) and assayed for the phthalocyanine content by spectrofluorimetric analysis after chemical extraction, see Reddi et al Br. J. Cancer 61: 407-411, 1990; typically a weighted amount of tissue was homogenized in 3 ml of 2% aqueous sodium dodecyl sulphate (SDS); the homegenate was incubated for 1 hour at room temperature under gentle magnetic stirring and 1 ml of the suspension was added with 2 ml of THF, centrifuged at 10 mins at 3000 rpm; the supernatant was collected and its fluorescence intensity was determined in the 670-770 nm interval (excitation at 650 nm). The fluorescence intensity was converted into ZnODPc concentration by interpolation with a calibration plot. Samples of blood were taken from the sacrificed animals, centrifuged to separate the erythocytes and the serum (50 μl) thus collected was diluted with 2% aqueous SDS (700 μl), added with 1.5 ml of THF and centrifuged for 10 mins at 3000 rpm. The ZnODPc concentration in the supernatant was determined by fluorescence spectroscopy as specified above. Special attention was focussed on the phthalocyanine content in the muscle which is the peritumoural tissue in the animal model exemplified in this study and the skin because of the frequent onset of persistent cutaneous photosensitivity in PDT patients. The determination of ZnODPc accumulation in liver and kidneys can provide useful information on the modality of its elimination from the organism. Analyses were carried out at 3 h intervals after photosensitizer injection and at 24 h which is generally considered to be the usual time interval for PDT treatment.

MS-2 fibrosarcoma = assay: Phototherapeutic studies: tumour response to PDT (visual observation, electron microscopy); assay type: in vivo, female Balb/c mice
Method: (§2) In this investigation female Balb/c mice 20-22 g bearing a MS-2 fibrosarcoma intramuscularly implanted into the hind right leg were used as an animal model. On the 7th day after transplantation when the tumour diameter was 0.6-0.8 cm and no spontaneous necrosis could be detected, the mice were injected with 1.2 or 2.4 mg/kg ZnODPc incorporated into Cremophor emulsions. The preparation and characterisation of such emulsions has been described by L. Polo et al Cancer Lett. 66: 217-223, 1992. The amount of injected ZnODPc was estimated by diluting a known aliquot of the phthalocyanine-containing emulsion into THF and reading the absorbance at 701 nm (molar absorption coefficient 2.01×10^5 dm^3 mol^-1 cm^-1).
The tumour bearing mice were injected with 2.4 mg/kg ZnODPc and after 24 h were irradiated by 600-700 nm light which was isolated from the emission of a quartz-halogen lamp (Teclas, Lugano Switzerland) by optical filtering. The light beam was focussed into a bundle of optical fibres, whose tip was positioned at a 1 cm distance from the tumour surface. The lamp was operated at 230 mW/cm^2 for a total delivered light dose of 400 J/cm^2.
The tumour response was analyzed by visual observation, as well as by electron microscopy studies on tumour specimens taken at 6 h and 24 h after the end of the PDT. The procedure for the preparation of the samples and ultra structural determinations was performed as described by Milanesi et al. Br. J. Cancer 61: 846-850, 1990.
At the same time endocytoplasmic vacuolisation 6 is frequently observed with some completely necrotic cells and loss of the organised tissue structure.

[5] = Spectroscopic properties of ZnODPc (absorption, fluorescence); assay type: physicochemical
Method: The fluorescence emission maximum, excited at 703 nm is at 712 nm.
as §2

[6] = Table 3, aerated samples, same system as triplet studies (1% pyridine in toluene), means of no less than four runs, compounds 8 and 9 run once
[7] = irradiation conditions described, in words

Question: For `[Zn+2].c1ccc2c(c1)-c1nc-2nc2[n-]c(nc3nc([n-]c4nc(n1)-c1ccccc1-4)-c1ccccc1-3)c1ccccc21` [Example 10, unsubstituted zinc phthalocyanine, reference compound], which “Singlet Oxygen Quantum Yield” value [1] is on record?
Answer: Its value is “approximately 0.4”.

Question: What about the “Singlet Oxygen Quantum Yield” value [2, 6] of the same compound?
Answer: Its value is 0.50.

Question: And the “Triplet Quantum Yield” value [3]?
Answer: The value was 0.45.

Question: Which accumulation in kidneys [4] does the source give for `CCCCCCCCCCc1ccc(CCCCCCCCCC)c2c1C1=NC2=Nc2c3c(CCCCCCCCCC)ccc(CCCCCCCCCC)c3c3[n]2[Zn][n]2c(c4c(CCCCCCCCCC)ccc(CCCCCCCCCC)c4c2=NC2=NC(=N3)c3c(CCCCCCCCCC)ccc(CCCCCCCCCC)c32)=N1` [Example 1, 1,4,8,11,15,18,22,25-octakis-decylphthalocyaninato-zinc] here?
Answer: Its accumulation in kidneys is “negligible amounts”.

Question: And the liver concentrations [4]?
Answer: Its liver concentrations is “comparatively low”.

Question: What about the “presence in cutaneous districts (skin)” value [4] of the same compound?
Answer: Its value is “essentially no phthalocyanine is present”.

Question: What about the “recovery from the peritumoural tissue” value [4] of the same compound?
Answer: Its value is “No detectable amount”.

Question: What about the “Recovery, Kidney” value ([4]; iv, 1.2 mg/kg, 3 h) of the same compound?
Answer: Its value is 0.066 ± 0.008 μg of dye/g of tissue.

Question: And the “Recovery, Liver” value ([4]; iv, 1.2 mg/kg, 3 h)?
Answer: The value was 0.278 ± 0.053 μg of dye/g of tissue.

Question: What about the “Recovery, Serum” value ([4]; iv, 1.2 mg/kg, 3 h) of the same compound?
Answer: Its value is 0.436 ± 0.324.

Question: What about the “Recovery, Tumour” value ([4]; iv, 1.2 mg/kg, 3 h) of the same compound?
Answer: Its value is 0.073 μg of dye/g of tissue.

Question: And the “Recovery, Kidney” value ([4]; iv, 1.2 mg/kg, 24 h)?
Answer: Its value is 0.O05 ± 0.002 μg of dye/g of tissue.

Question: And the “Recovery, Liver” value ([4]; iv, 1.2 mg/kg, 24 h)?
Answer: Its value is 0.673 ± 0.140 μg of dye/g of tissue.

Question: What about the “Recovery, Serum” value ([4]; iv, 1.2 mg/kg, 24 h) of the same compound?
Answer: Its value is 0.042 ± 0.015.

Question: What about the “Recovery, Skin” value ([4]; iv, 1.2 mg/kg, 24 h) of the same compound?
Answer: Its value is 0.008 ± 0.001 μg of dye/g of tissue.

Question: What about the “Recovery, Tumour” value ([4]; iv, 1.2 mg/kg, 24 h) of the same compound?
Answer: The value was 0.132 ± 0.022 μg of dye/g of tissue.

Question: What about the “tumour growth delay compared with untreated tumour-bearing mice” value (MS-2 fibrosarcoma; 2.4 mg/kg, irradiated 24 h post-injection, 600-700 nm, 400 J/cm^2) of the same compound?
Answer: The value was “significant delay in tumour growth”.

Question: And the “damage of blood vessels (electron microscopy)” value (MS-2 fibrosarcoma; 6 h after irradiation, FIG. 1)?
Answer: The value was “less heavily damaged”.

Question: And the “damage of tumour cells (electron microscopy)” value (MS-2 fibrosarcoma; 6 h after irradiation, FIG. 1)?
Answer: Its value is “extensive damage of tumour cells”.

Question: And the “overall appearance of the tumour” value (MS-2 fibrosarcoma; 24 h after irradiation)?
Answer: Its value is “deeply haemorrhagic”.

Question: What about the “tissular damage (electron microscopy)” value (MS-2 fibrosarcoma; 24 h after irradiation, FIG. 2) of the same compound?
Answer: The value was “remarkably more extensive at 24 h after irradiation”.

Question: What about the “damage of cell nuclei” value (MS-2 fibrosarcoma; in words) of the same compound?
Answer: Its value is “extensive damage of cell nuclei”.

Question: What about the “tumour damage upon photoexcitation with red light” value (MS-2 fibrosarcoma; in words) of the same compound?
Answer: The value was “sufficient for inducing an efficient tumour damage”.

Question: And the “damage of blood capillaries” value (MS-2 fibrosarcoma; [7])?
Answer: The value was “appreciable damage of blood capillaries”.

Question: And the “main target of photosensitization” value (MS-2 fibrosarcoma; [7])?
Answer: Its value is “malignant cells appear to be the main target”.

Question: What about the molar absorption coefficient ([5]; THF, 701 nm) of the same compound?
Answer: Its molar absorption coefficient is 2.01×10^5 dm^3 mol^-1 cm^-1.

Question: What about the absorption maximum ([5]; cyclohexane) of the same compound?
Answer: The absorption maximum was 703 nm.

Question: And the “molar absorption coefficient (ε) at the absorption maximum” value ([5]; cyclohexane, 703 nm)?
Answer: The value was “approximately 2.3×10^5 dm^3 mol^-1 cm^-1”.

Question: And the fluorescence emission maximum ([5]; cyclohexane, excited at 703 nm)?
Answer: The fluorescence emission maximum was 712 nm.

Question: What about the “Singlet Oxygen Quantum Yield” value [2, 6] of the same compound?
Answer: Its value is 0.73.

Question: And the “Singlet Oxygen Quantum Yield” value ([2]; toluene/pyridine solution)?
Answer: The value was 0.73±0.06.

Question: And the “Triplet Lifetime” value [3]?
Answer: The value was 50 μs.

Question: And the “Triplet Quantum Yield” value [3]?
Answer: The value was 0.67.

Question: With `CCCCCCCCCCc1ccc(CCCCCCCCCC)c2c1C1=NC2=Nc2c3c(CCCCCCCCCC)ccc(CCCCCCCCCC)c3c3[n]2[Zn][n]2c(c4c(CCCCCCCCCO)ccc(CCCCCCCCCO)c4c2=NC2=NC(=N3)c3c(CCCCCCCCCC)ccc(CCCCCCCCCC)c32)=N1` [Example 9, 1,4-Bis (9-Hydroxynonyl)-8,11,15,18,22,25-Hexadecylphthalocyaninato-Zinc] as the compound, how does the “Singlet Oxygen Quantum Yield” value [2, 6] read?
Answer: The value was 0.80.

Question: What about the “Triplet Quantum Yield” value [3] of the same compound?
Answer: The value was 0.70.
